Reference: ChEMBL document CHEMBL3507680, “University of Dundee, Gates Library screen for HepG2 cell viability”

Test: Human HepG2 cell viability assay in 384 well format
Format: toxicity, cell-based
Parameters: dose 125 nL, time 70.5 hour; cytotoxicity at 70.5 h: concentration not given beside the values
Settings: HepG2 cells, read-out: Inhibition
`c1csc(-c2noc(C3CCCNC3)n2)c1` (stereo not given) showed a cytotoxicity at 70.5 h of -16.5%.
Work on `CC(=O)N(Cc1ncc(C)o1)C1CCN(Cc2noc(C)n2)C1` (stereo not given) yielded a cytotoxicity at 70.5 h of -5.31%.
In the case of `c1coc(-c2nnc([C@H]3CCN(Cc4ccc5c(c4)OCO5)C3)o2)c1`, the cytotoxicity at 70.5 h was -6.68%.
`CNc1ncc(CN(C)C(=O)c2cccc(-n3cccn3)c2)cn1` showed a cytotoxicity at 70.5 h of -6.94%.
Work on `Cc1nc(CNC(=O)c2cc(Cn3ccnc3C(C)C)[nH]n2)sc1C` yielded a cytotoxicity at 70.5 h of -14.3%.
For `COCCN1CCc2ncnc(-c3ccccc3)c2CC1`, the cytotoxicity at 70.5 h was -5.42%.
Work on `Cc1ncsc1CN1C[C@@H]2COC[C@]2(C(=O)NCc2ccccn2)C1` yielded a cytotoxicity at 70.5 h of -9.2%.
For `Cc1cccc2c1nc1n2[C@@H](CNC(=O)CCC(=O)O)COC1`, the cytotoxicity at 70.5 h was -4.85%.
Work on `Cc1cccc(-c2ccc(C(=O)N3CCN(C4CC4)CC3)c(=O)[nH]2)c1` yielded a cytotoxicity at 70.5 h of 22.8%.
`COc1ccc2[nH]cc(-c3ccnc(NC4CCCC4)n3)c2c1` gave a cytotoxicity at 70.5 h of -0.782%.
Compound `CN1CCCCC[C@@H]2[C@@H]1[C@H](c1ccccc1)CN2C(=O)c1ccccn1` has a cytotoxicity at 70.5 h of -1.6%.
`CCn1nc(C)c2ncnc(NCCn3cccn3)c21` showed a cytotoxicity at 70.5 h of -1.42%.
In the case of `Cc1csc(N2CCCN(C(=O)c3ccsc3)CC2)n1`, the cytotoxicity at 70.5 h was -12%.
`CC(C)c1cc(NCC(C)N2CCCC2)n2nccc2n1` (stereo not given) gave a cytotoxicity at 70.5 h of -10.1%.
`COC1COC2(CCN(C(=O)c3ncccn3)CC2)C1` (stereo not given) gave a cytotoxicity at 70.5 h of 14.8%.
In the case of `CCn1nc2c(cc1=O)CN(CCCOc1ccc(C#N)cc1)CC2`, the cytotoxicity at 70.5 h was 10.4%.
`CCc1cc(NC(=O)c2cccc(OCC(F)(F)F)n2)[nH]n1` gave a cytotoxicity at 70.5 h of -2.9%.
In the case of `Oc1nc(C2CC2)nc2c1nnn2C1CCN(Cc2ccoc2)CC1`, the cytotoxicity at 70.5 h was -6.55%.
Compound `O=S(=O)(Cc1ccc(F)cc1F)NCCOc1cccnc1` has a cytotoxicity at 70.5 h of -18.9%.
`Cn1cccc1C(=O)N1C[C@@H]2C[C@@H](c3nnc(C4CC4)o3)O[C@@H]2C1` gave a cytotoxicity at 70.5 h of -3.51%.
With `CCS(=O)(=O)N1CC[C@H]2C(=O)N(Cc3cccnc3)CCO[C@H]2C1` the cytotoxicity at 70.5 h was -13.9%.
Work on `Cc1cc(C)n(CC2CCCN2C(=O)Cc2cn3ccsc3n2)n1` (stereo not given) yielded a cytotoxicity at 70.5 h of -12.4%.
`CCN1CC(CN(C)Cc2nc(-c3ccc(F)cc3)oc2C)CC1=O` (stereo not given) showed a cytotoxicity at 70.5 h of 4.29%.
In the case of `O=C(Cn1nc(Br)nc1Br)N1CCCC1`, the cytotoxicity at 70.5 h was -0.289%.
Work on `O=S(=O)(C1CC1)N1CCOC2(COCCN(c3ncccn3)C2)C1` (stereo not given) yielded a cytotoxicity at 70.5 h of -9.98%.
`CCc1nc(CN2CCCC(Cn3nc(C)nc3C)C2)no1` (stereo not given) showed a cytotoxicity at 70.5 h of -9.12%.
`COc1ccc2cccc(CC(=O)NCCc3n[nH]c(=O)[nH]3)c2c1` gave a cytotoxicity at 70.5 h of -8.41%.
In the case of `Cc1ccsc1C(O)CNS(=O)(=O)Cc1ccc(F)cc1` (stereo not given), the cytotoxicity at 70.5 h was -10.1%.
`Cn1c(C2CCCN2C(=O)CN2CSCC2=O)nc2ccccc21` (stereo not given) showed a cytotoxicity at 70.5 h of -5.23%.
`CN(CCOc1ccccc1Cl)S(=O)(=O)N1CCOCC1` showed a cytotoxicity at 70.5 h of -7.93%.
With `CO[C@H]1C[C@@H](O)C12CCN(C(=O)c1cccc(CCC(C)(C)O)c1)CC2` the cytotoxicity at 70.5 h was -0.132%.
`Cc1cc2c(cc1NC(N)=O)OCO2` showed a cytotoxicity at 70.5 h of -4.79%.
`CCN(CC1COc2ccccc2O1)C(=O)C1=NN(C)C(=O)CC1` (stereo not given) showed a cytotoxicity at 70.5 h of -2.86%.
`CCn1c(CC2CCN(C(=O)c3cc(CC(C)C)on3)CC2)n[nH]c1=O` showed a cytotoxicity at 70.5 h of -2.52%.
Work on `COc1ccc2cc(CNCc3c(C)nn(C)c3N(C)C)ccc2c1` yielded a cytotoxicity at 70.5 h of 23%.
`Cn1ccnc1COc1ccc(CN2CCN(CCO)CC2)cc1` showed a cytotoxicity at 70.5 h of 15%.
`Cc1cnn(C2CCCN(C(=O)c3ccc4c(c3)CCC4)C2)c1` (stereo not given) gave a cytotoxicity at 70.5 h of -6.05%.
With `CCN(CC)C(C)CNC(=O)c1cccnc1Oc1cccnc1` (stereo not given) the cytotoxicity at 70.5 h was -5.14%.
Work on `COc1ccc(CN2CC(O)CN(C(=O)OCC(C)(C)C)CC2=O)cc1` (stereo not given) yielded a cytotoxicity at 70.5 h of -2.24%.
`Cc1cc(C)n(CC2CCCN2CCC(=O)Nc2cc(C)on2)n1` (stereo not given) gave a cytotoxicity at 70.5 h of -7.1%.
For `CCN1CC2(CC1=O)CN(Cc1cnn(C)c1)CCN(C(C)=O)C2` (stereo not given), the cytotoxicity at 70.5 h was -0.943%.
In the case of `O=C(CCn1ccc2ccc(Br)cc21)/N=c1\[nH]nc(C2CCCO2)s1` (stereo not given), the cytotoxicity at 70.5 h was -14.5%.
Work on `Cc1cnn(CC(C)NCc2ccc(C#N)cc2)c1` (stereo not given) yielded a cytotoxicity at 70.5 h of 0.599%.
Work on `COc1cccc(CC2CN(C3CCC3)CCO2)c1` (stereo not given) yielded a cytotoxicity at 70.5 h of 0.0358%.
For `c1cc(C2CC2)n2cnc(C3CN(Cc4ccncc4)CCO3)c2c1` (stereo not given), the cytotoxicity at 70.5 h was -1.44%.
In the case of `Cc1nc(C2CCCN2C(=O)CN(C)Cc2ccccc2)no1` (stereo not given), the cytotoxicity at 70.5 h was -2.86%.
With `O=C1COc2ccc(S(=O)(=O)NCc3ccccc3)c3c2N1CCC3` the cytotoxicity at 70.5 h was 4.09%.
`COc1ccc(S(=O)(=O)NC(=O)COC2CCCCC2)cc1` showed a cytotoxicity at 70.5 h of -7.04%.
`O=C(Nc1nncs1)c1ccc(-n2cnnn2)cc1` showed a cytotoxicity at 70.5 h of 1.5%.
`CCCC1(C(=O)O)CCCN(C(=O)c2cc(Cl)ccc2F)C1` (stereo not given) showed a cytotoxicity at 70.5 h of -13.1%.
`CC(C)n1cc(C(=O)NCCCc2csc(N)n2)cn1` gave a cytotoxicity at 70.5 h of -9.21%.
Work on `CN1CC(=O)N(c2cnn(C)c2)CC12CCN(C(=O)c1ccsc1)C2` (stereo not given) yielded a cytotoxicity at 70.5 h of -7.55%.
`CCc1ccc(C2CCCN2C(=O)CNC(=O)CCC(C)C)o1` (stereo not given) gave a cytotoxicity at 70.5 h of -1.81%.
Compound `Cc1ccccc1OCCN(C)C(=O)NC(C)c1nncn1C` (stereo not given) has a cytotoxicity at 70.5 h of -6.52%.
Work on `c1ccc(-n2ccnc2)c(CNCC2CNc3ccnn3C2)c1` (stereo not given) yielded a cytotoxicity at 70.5 h of -20.8%.
In the case of `Cc1cnn(CC2CCCN2C(=O)CCc2c(C)noc2Cl)c1` (stereo not given), the cytotoxicity at 70.5 h was -8.81%.
`Cc1ncsc1CN1C[C@H](C(=O)NC2CCCC2)[C@@H]2CCO[C@@H]2C1` gave a cytotoxicity at 70.5 h of -1.79%.
Work on `Cc1n[nH]c(C)c1C1CCCN1C(=O)NCC(=O)Nc1ccccc1` (stereo not given) yielded a cytotoxicity at 70.5 h of 6.46%.
With `COc1ccc(S(=O)(=O)NC(=O)c2cscn2)cc1C` the cytotoxicity at 70.5 h was -13.6%.
With `CC(C)c1nn(C)c(N2CCOCC2)c1CNCCC(=O)N(C)C` the cytotoxicity at 70.5 h was 22.2%.
`COc1cc(C(=O)NS(=O)(=O)c2cccc(C#N)c2)cc(Cl)c1OC` gave a cytotoxicity at 70.5 h of -8.04%.
`CC(=O)N1CCCC1C(=O)NCCOc1c(C)cccc1C` (stereo not given) showed a cytotoxicity at 70.5 h of -1.77%.
`CCS(=O)(=O)N1Cc2c(Cn3ccnc3)nn(C(C)C)c2C1` gave a cytotoxicity at 70.5 h of 10.4%.
`Cc1cc(C2CCCN2CCCS(=O)(=O)c2ccccc2)no1` (stereo not given) showed a cytotoxicity at 70.5 h of -4.85%.
`COC(=O)CCNC(=O)C1CC(=O)N(C2CCCC2)C1` (stereo not given) gave a cytotoxicity at 70.5 h of 0.402%.
Compound `CC(C)c1nccn1-c1cccc(C2CCN(C)CC2)n1` has a cytotoxicity at 70.5 h of 27.3%.
Work on `CC(c1cccc(S(N)(=O)=O)c1)N(C)CCCOc1ccccc1` (stereo not given) yielded a cytotoxicity at 70.5 h of -4.57%.
`COCC(=O)N1C[C@H](N(C)Cc2cncnc2)[C@H]2OCCC[C@H]21` gave a cytotoxicity at 70.5 h of -8.78%.
Work on `COc1ccc(/C=C/CN2C[C@H]3CC[C@@H]2CN(S(=O)(=O)N(C)C)C3)cc1` yielded a cytotoxicity at 70.5 h of -5.26%.
In the case of `N#Cc1ccc(OC2CCN(CC(=O)NCC3CCCO3)CC2)cc1` (stereo not given), the cytotoxicity at 70.5 h was -5%.
Work on `CCc1ccc(C(NCC(N)=O)C(C)(C)C)o1` (stereo not given) yielded a cytotoxicity at 70.5 h of -6.31%.
`CN(C)Cc1cnc(C2CCN(C(=O)c3ccccc3F)C2)[nH]1` (stereo not given) gave a cytotoxicity at 70.5 h of -3.2%.
For `COc1cccc(C(=O)NS(=O)(=O)c2cccc(C#N)c2)c1`, the cytotoxicity at 70.5 h was -6.99%.
Compound `O=C1C[C@H]2[C@@H](CCN2C(=O)c2ccccc2)N1CCN1CCOCC1` has a cytotoxicity at 70.5 h of -5.41%.
For `CC(C)n1ccc(-c2cc(C(=O)N3CCN(C)CC3)c3ccccn23)n1`, the cytotoxicity at 70.5 h was -3.84%.
Work on `COCCC1(CO)CCCN(C(=O)c2cc(C#N)c(=O)[nH]c2C)C1` (stereo not given) yielded a cytotoxicity at 70.5 h of -0.759%.
With `CCn1cc(C(=O)N2CCCC(c3nccs3)C2)cn1` (stereo not given) the cytotoxicity at 70.5 h was -2.34%.
In the case of `Cc1cc(C(=O)N2CCCC(c3cc(=O)nc4n3CCC4)C2)on1` (stereo not given), the cytotoxicity at 70.5 h was -6.58%.
With `O=C(O)c1nnn(-c2ccccc2F)c1-c1ccncc1` the cytotoxicity at 70.5 h was 5.16%.
In the case of `CC1CN(C(=O)NCCc2nc(C(C)C)no2)CCO1` (stereo not given), the cytotoxicity at 70.5 h was 10.3%.
